Measurements published in patent US7226949B2, “Compounds of use in the treatment of epilepsy, seizure, and electroconvulsive disorders” (University of Kentucky, priority 2002, dated 2007).

How the values were obtained:
MES-induced seizure [1] = assay: Maximal Electroshock Seizure (MES) test in mice, intraperitoneal administration; format: in vivo
From the text: (§1) The Maximal Electroshock Seizure (MES) or Maximal Seizure Pattern Test
(§2) The MES is an experimental model for generalized tonic-clonic seizures that identifies compounds that prevent seizure spread. The MES model is highly reproducible and has a consistent endpoint. An advantage of this model is that the behavioral and electrographic seizures are consistent with those observed in humans.
(§3) In the MES test, the animal receives an electrical stimulus, 0.2 seconds in duration, via corneal electrodes primed with an electrolyte solution containing an anesthetic agent. The 0.2 second stimulation is generated with 150 mA in rats and 50 mA in mice at 60 Hz. […] In rats, the compound is administered orally, while mice receive the agent via intraperitoneal injection. The test endpoint, electrogenic seizure, is manifested as hindlimb tonic extension.

MES-induced seizure [2] = assay: Maximal Electroshock Seizure (MES) test in rats, oral administration; format: in vivo; settings: for Percentage of rats in which the test compound prevented MES-induced seizure: 30 mg/kg oral; for Time to Peak Effect: MES test
From the text: as §1, §2, §3
A full dose-response curve was also generated in rats to determine the ED50 value (n=8 at each time point). […] The ED50 of 4,4′-thiodianiline was evaluated in both rats and mice.

6 Hz seizures = assay: 6 Hz kindling model; format: in vivo, mice
Description: The 6 Hz kindling model is another experimental seizure model that effectively detects compounds with anti-seizure activity. This screen is used to evaluate the ability of a compound to prevent the acquisition of focal seizures; in particular, the capacity of a compound to prevent the development of seizures induced by a low-frequency (6 Hz), long duration (three seconds) stimulus in electrode […] is evaluated. Several of the most promising compounds were evaluated in this screen to further characterize their anti-seizure activity.
In the 6 Hz kindling test, mice are implanted with corneal electrodes. The test compound is administered (i.p.) to the animal at 0.25, 0.5, 1, 2, or 4 hours prior seizure induction. The seizure is initiated by delivering a current (32 mA at 6 Hz for three seconds) to the animal through the corneal electrodes. The resulting psychomotor seizure is usually characterized by a minimal clonic phase followed by stereotyped, automatistic behaviors. This response is analogous to the aura of human patients with partial seizures.

[3] = system: focal seizures in hippocampal kindled rats; assay: Hippocampal kindling model; format: in vivo, Sprague-Dawley rats; design: key to Racine Seizure Score ± SEM: Racine stage 1 to 5; settings: for Afterdischarge Duration ± SEM / Racine Seizure Score ± SEM: rats, 100 mg/kg, n=7
From the text: Hippocampal Kindling Model
The hippocampal kindling model is an experimental seizure model used to simulate focal seizures. This model evaluates the capacity of a compound to affect both the expression and acquisition of focal seizures. In addition, kindled seizures provide a methodology for studying complex brain networks that may contribute to the spread and generalizations of seizures from a focus. The hippocampal kindling model has the advantage of being one of the only kindling models that can evaluate the temporal effects of an agent in a single animal. For this assessment, bipolar electrodes are surgically implanted in the ventral hippocampus of adult male Sprague-Dawley rats (275-300 g) under ketamine-xylazine anesthesia. Following a one-week recovery period, stage five behavioral seizures are induced by stimulating the rat 12 times per day with 50 Hz, 10 s train of 1 ms biphasic 200 μA pulses delivered every 30 min for six hours on alternating days. After five stimulus days, the animal has had 60 stimulations. A drug free control period with supramaximal stimulations is used to verify the stability of a stage five generalized seizure before the anticonvulsant activity of a drug is measured.
This screen is used to measure the capacity of the drug to prevent the expression of focal seizures. […] The animal is exposed to an initial stimulation of 20 μA; the stimulation is increased in 10 μA increments every one-two minutes until an afterdischarge is recorded. After the stability of the stage five seizure is established, the drug candidate is administered to the rats via intraperitoneal injection 15 minutes after the last control stimulation. Starting with the first dose, the anticonvulsant activity of the test agent is measured every thirty minutes for four hours. Following each stimulation, Racine seizure scores and afterdischarge durations are compared to control values to quantify the anti-convulsant activity of the agent. The Racine seizure scores vary from stage 1 to 5. The stages are characterized according to the following criteria: Stage 1—mouth and facial clonus, Stage 2—stage 1 and head nodding, Stage 3—stage 2 and forelimb clonus, Stage 4—stage 3 and rearing, Stage 5—stage 4 and repeated rearing and falling. Since a single animal is used, each rat serves as its own control.
4,4′-Thiodianiline was used in the rat hippocampal kindled rats to screen to measure its anticonvulsant potential. Doses of 12.5, 25, 50 and 100 mg/kg were evaluated at a minimum of seven time points (n=7 for each dose and each time point). […] After oral administration of the test compound stimulation, the Racine seizure scores and afterdischarge durations were measured and are shown below. The Racine seizure scores dropped from between a stage 4 and stage 5 seizure for control measurements to between a stage 1 and stage 2 seizure after treatment with 4,4′-thiodianiline.

rats = assay: Minimal neurotoxicity in rats, positional sense and gait and stance tests; format: in vivo
From the text: If the rat experiences neurological toxicity, it will not be able to quickly lift its leg quickly back to a normal position.
In the gait and stance test, neurotoxicity is indicated by a circular or zigzag gait after administration of the test compound. In addition, ataxia, abnormal spread of the legs, abnormal posture, tremor hyperactivity, lack of exploratory behavior, somnolence, stupor, or catalepsy can indicate neurotoxicity.

mice = assay: Minimal neurotoxicity in mice, rotorod test
Description: In mice, the test compound is administered at doses of 30, and 100 mg/kg prior to evaluation in the toxicity screens. The mice are tested at 0.5 hours and 4 hours after intraperitoneal administration of the test compound.
Toxicity in mice weighing between 18 and 25.5 g is assessed using the standardized rotorod test [9]. For each compound tested, a minimum of 18 animals are evaluated for neurotoxicity. Control mice can maintain their equilibrium for an extended period of time when they are placed on a 6-rpm rotation rod. Neurologically impaired animals cannot maintain equilibrium for one minute in each of three successive trials.

[4] = 30 mg/kg i.p., 0.5 h after administration
[5] = 30 mg/kg i.p., 4.0 h after administration
[6] = 100 mg/kg i.p., 0.5 h after administration
[7] = 100 mg/kg i.p., 4.0 h after administration
[8] = 300 mg/kg i.p., 0.5 h after administration
[9] = 300 mg/kg i.p., 4.0 h after administration
[10] = 30 mg/kg i.p., 0.25 h after administration
[11] = 30 mg/kg i.p., 1.0 h after administration
[12] = 30 mg/kg i.p., 2.0 h after administration
[13] = 100 mg/kg i.p., 0.25 h after administration
[14] = 100 mg/kg i.p., 1.0 h after administration
[15] = 100 mg/kg i.p., 2.0 h after administration

In the case of `Nc1ccc(Sc2ccc(N)cc2)cc1` [4,4′-thiodianiline], the “Percentage of mice in which the test compound prevented MES-induced seizure” value (MES-induced seizure [1]; [4]) is reported as 0%, the “Percentage of mice in which the test compound prevented MES-induced seizure” value (MES-induced seizure [1]; [5]) is reported as 0% and the “Percentage of mice in which the test compound prevented MES-induced seizure” value (MES-induced seizure [1]; [6]) is reported as 66%. For the same molecule, the “Percentage of mice in which the test compound prevented MES-induced seizure” value (MES-induced seizure [1]; [7]) was 100%, the “Percentage of mice in which the test compound prevented MES-induced seizure” value (MES-induced seizure [1]; [8]) was 100% and the “Percentage of mice in which the test compound prevented MES-induced seizure” value (MES-induced seizure [1]; [9]) was 100%. The ED50 (MES-induced seizure [1]; Mus musculus, ip, 0.5 h, read-out: ED50 (MES)) was 53.4 ± 14.9 mg/kg, the “Percentage of rats in which the test compound prevented MES-induced seizure” value (from here on “Percentage of rats”) (MES-induced seizure [2]; 0.25 h after administration) was 100% and the “Percentage of rats” value (MES-induced seizure [2]; 0.5 h after administration) was 100%. For the same molecule, the “Percentage of rats” value (MES-induced seizure [2]; 1.0 h after administration) was 100%, the “Percentage of rats” value (MES-induced seizure [2]; 2.0 h after administration) was 100% and the “Percentage of rats” value (MES-induced seizure [2]; 4.0 h after administration) was 100%. For the same molecule, the ED50 (MES-induced seizure [2]; Rattus norvegicus, po, read-out: ED50 required to inhibit MES-induced seizure) was 6.6 ± 5.07 mg/kg, the “Time to Peak Effect” value (MES-induced seizure [2]; rat, oral administration) was 1 h and the “Percentage of mice in which the test compound prevented seizure in the 6 Hz test” value (shortened to “Percentage of mice … in the 6 Hz test”) (6 Hz seizures; [10]) was 0%. For the same molecule, the “Percentage of mice … in the 6 Hz test” value (6 Hz seizures; [4]) was 25%, the “Percentage of mice … in the 6 Hz test” value (6 Hz seizures; [11]) was 25% and the “Percentage of mice … in the 6 Hz test” value (6 Hz seizures; [12]) was 25%. For the same molecule, the “Percentage of mice … in the 6 Hz test” value (6 Hz seizures; 80 mg/kg i.p., 0.25 h after administration) was 100%, the “Percentage of mice … in the 6 Hz test” value (6 Hz seizures; 80 mg/kg i.p., 0.5 h after administration) was 100% and the “Percentage of mice … in the 6 Hz test” value (6 Hz seizures; 80 mg/kg i.p., 1.0 h after administration) was 100%. For the same molecule, the “Percentage of mice … in the 6 Hz test” value (6 Hz seizures; 80 mg/kg i.p., 2.0 h after administration) was 75%, the “Percentage of mice … in the 6 Hz test” value (6 Hz seizures; 80 mg/kg i.p., 4.0 h after administration) was 0% and the “Percentage of mice … in the 6 Hz test” value (6 Hz seizures; [13]) was 100%. For the same molecule, the “Percentage of mice … in the 6 Hz test” value (6 Hz seizures; [6]) was 100%, the “Percentage of mice … in the 6 Hz test” value (6 Hz seizures; [14]) was 100% and the “Percentage of mice … in the 6 Hz test” value (6 Hz seizures; [15]) was 100%. The “Percentage of mice … in the 6 Hz test” value (6 Hz seizures; [7]) was 0%, the ED50 (6 Hz seizures; Mus musculus, ip, read-out: ED50 (6 Hz seizures)) was 30 to 80 mg/kg and the ED50 ([3]; Rattus norvegicus, hippocampal kindled rats, from doses of 12.5, 25, 50 and 100 mg/kg, read-out: ED50, dose required to prevent the expression of focal seizures) was 51.4 mg/kg. For the same molecule, the “Afterdischarge Duration ± SEM” value ([3]; 15 min) was 19.14 ± 9.58 s, the “Racine Seizure Score ± SEM” value ([3]; 15 min) was 1.43 ± 0.81 and the “Afterdischarge Duration ± SEM” value ([3]; 45 min) was 25.29 ± 13.71 s. The “Racine Seizure Score ± SEM” value ([3]; 45 min) was 1.29 ± 0.84, the “Afterdischarge Duration ± SEM” value ([3]; 75 min) was 24.86 ± 11.43 s and the “Racine Seizure Score ± SEM” value ([3]; 75 min) was 0.71 ± 0.57. The “Afterdischarge Duration ± SEM” value ([3]; 105 min) was 33.29 ± 14.17 s, the “Racine Seizure Score ± SEM” value ([3]; 105 min) was 1.29 ± 0.64 and the “Afterdischarge Duration ± SEM” value ([3]; 135 min) was 34.71 ± 14.35 s. For the same molecule, the “Racine Seizure Score ± SEM” value ([3]; 135 min) was 1.57 ± 0.81, the “Afterdischarge Duration ± SEM” value ([3]; 165 min) was 57.43 ± 18.17 s and the “Racine Seizure Score ± SEM” value ([3]; 165 min) was 1.57 ± 0.65. For the same molecule, the “Afterdischarge Duration ± SEM” value ([3]; 195 min) was 55.29 ± 18.19 s, the “Racine Seizure Score ± SEM” value ([3]; 195 min) was 1.57 ± 0.69 and the “Afterdischarge Duration ± SEM” value ([3]; 225 min) was 71.29 ± 18.99 s. For the same molecule, the “Racine Seizure Score ± SEM” value ([3]; 225 min) was 1.86 ± 0.70, the “Afterdischarge Duration ± SEM” value ([3]; 255 min) was 65.43 ± 17.91 s and the “Racine Seizure Score ± SEM” value ([3]; 255 min) was 1.86 ± 0.63. For the same molecule, the “ED50 for toxicity relative to ED50 for anti-convulsant activity” value (rats; 1 hour (time to peak effect) after oral administration) was roughly 60 times and the “acute neurotoxicity as measured by the rotorod test” value (mice; up to four hours after dosing, doses as high as 300 mg/kg) was “No acute neurotoxicity was observed”.
For `Nc1ccc(Oc2ccc(N)cc2)cc1` [4,4′-diaminodiphenyl ether], the “Percentage of mice in which the test compound prevented MES-induced seizure” value (MES-induced seizure [1]; [4]) was 0%, the “Percentage of mice in which the test compound prevented MES-induced seizure” value (MES-induced seizure [1]; [5]) was 0% and the “Percentage of mice in which the test compound prevented MES-induced seizure” value (MES-induced seizure [1]; [6]) was 100%. The “Percentage of mice in which the test compound prevented MES-induced seizure” value (MES-induced seizure [1]; [7]) was 100%, the “Percentage of mice in which the test compound prevented MES-induced seizure” value (MES-induced seizure [1]; [8]) was 100% and the “Percentage of mice in which the test compound prevented MES-induced seizure” value (MES-induced seizure [1]; [9]) was 100%. The “Percentage of rats” value (MES-induced seizure [2]; 0.25 h after administration) was 100%, the “Percentage of rats” value (MES-induced seizure [2]; 0.5 h after administration) was 100% and the “Percentage of rats” value (MES-induced seizure [2]; 1.0 h after administration) was 75%. For the same molecule, the “Percentage of rats” value (MES-induced seizure [2]; 2.0 h after administration) was 75%, the “Percentage of rats” value (MES-induced seizure [2]; 4.0 h after administration) was 100% and the “Time to Peak Effect” value (MES-induced seizure [2]; rat, oral administration) was 6 h. For the same molecule, the “ED50 required to inhibit MES-induced seizure” value (MES-induced seizure [2]; rat, oral administration, at the time of peak effect, n=8) was 5.24 ± 4.67 mg/kg, the “Percentage of mice … in the 6 Hz test” value (6 Hz seizures; [10]) was 0% and the “Percentage of mice … in the 6 Hz test” value (6 Hz seizures; [4]) was 50%. For the same molecule, the “Percentage of mice … in the 6 Hz test” value (6 Hz seizures; [11]) was 25%, the “Percentage of mice … in the 6 Hz test” value (6 Hz seizures; [12]) was 25% and the “Percentage of mice … in the 6 Hz test” value (6 Hz seizures; [13]) was 100%. For the same molecule, the “Percentage of mice … in the 6 Hz test” value (6 Hz seizures; [6]) was 100%, the “Percentage of mice … in the 6 Hz test” value (6 Hz seizures; [14]) was 100% and the “Percentage of mice … in the 6 Hz test” value (6 Hz seizures; [15]) was 100%. For the same molecule, the “Percentage of mice … in the 6 Hz test” value (6 Hz seizures; [7]) was 0%, the “expression of fully kindled seizures” value ([3]; hippocampal kindling model, not as effective as 4,4′-thiodianiline) was “had the capacity to block the expression of fully kindled seizures” and the toxicity (rats; 250 mg/kg) was “no significant toxicity”. For the same molecule, the toxicity (mice; 100 mg/kg) was “no significant toxicity”.
